Assay type in all cases: cell-based
The target in assay [1] is T1, BCL-XL (Homo sapiens, UniProt Q07817).
T1 construct: endogenous in cells; host or cells: MOLT-4
Briefly: BCL-XL degradation assay, western blot in MOLT-4 cells, 16 h. The following applies: for DC50: read-out: Bcl-xL WB in MOLT-4 degradation 16 h: Mean external-Abs DC50. In outline: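 MOLT-4 cells treated with compounds at 0.02-10 μM final for 16 hr at 37° C; lysates analysed by western blot with anti-BCL-xL, beta-actin and GAPDH loading controls, infrared imaging and densitometry; DC50 and Dmax % reported as letter codes.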
For orientation: Immunoblotting shows a protein as a band on a membrane.

Another assay concerns MOLT-4 cells. Nature of the assay: CTG (CellTiter-Glo) cell viability assay, MOLT-4. The following applies: Homo sapiens, 3 day incubation, read-out: CTG Cell Viability Assay - MOLT-4 3 day: Average external-IC50. The procedure:
Compound-mediated viability effect on MOLT-4 and Caki-2 was quantitatively determined using the CellTiter-Glo® Luminescent Cell Viability Assay kit from Promega (Catalog number G7570) following manufacturer's recommended procedures. Briefly, MOLT-4 and Caki-2 cells were seeded into 384 well plates (Grenier Bio-One, Catalog number 781080) with a density of 10,000 cells per well. Compounds were then added to the assay plate with final top concentration of 10 μM and 1:3 dilution series with total of 9 doses. The final DMSO concentration is normalized to 0.2%. The assay plates were incubated at 37° C., for 3 days under 5% CO2. Then the assay plate was equilibrated at room temperature for 10 minutes. To determine cell viability, 30 uL CellTiter Glo reagent was added to each well and the assay plate was centrifuged at 1000 rpm for 30 second, incubated at room temperature for 10 min, and analyzed by detecting the luminescence using a multimode plate reader (EnVision 2105, PerkinElmer). The data was then analyzed by software Prism 7.0 from GraphPad and the dose response curves are fit using a three-parameter logistic equation to calculate IC50.
The letter codes for MOLT-4 IC50 include: A (<0.1 μM); B (0.1-1.0 μM); C (>1.0-3.0 μM); and D (>3.0 μM). The letter codes for Caki-2 IC50 include: A (<0.1 μM); B (0.1-1.0 μM); C (>1.0-10.0 μM); and D (>10.0 μM).
Background: In ATP-based viability assays light output follows the ATP content of the culture.

Assay [2] concerns the target T1, BCL-XL. Briefly: Bcl-xL ELISA degradation in MOLT-4 cells, 6 h. The following applies: for DC50: read-out: Bcl-xL ELISA in MOLT-4 degradation 6 h: Mean external-Abs DC50. The procedure: The letter codes for BCL-XL DC50 include: A (<0.01 μM); B (0.01-0.1 μM); C (>[…]); D (>0.5-1.0 μM); and E (>1.0 μM). The letter codes for Dmax % include A (>75%); B (50 to 75%); C (<50%).
Background: In an ELISA, binding on a coated surface is turned into a signal by an enzyme label.

Where [3] appears, read: western blot, MOLT-4 cells, 16 h, read-out: Bcl-xL WB in MOLT-4 degradation 16 h: Average Dmax %.
Setting [4] is: western blot, MOLT-4 cells, 16 h.

Where two headings read alike, the source gives them in different places.

T1 sequence (Q07817 whole entry): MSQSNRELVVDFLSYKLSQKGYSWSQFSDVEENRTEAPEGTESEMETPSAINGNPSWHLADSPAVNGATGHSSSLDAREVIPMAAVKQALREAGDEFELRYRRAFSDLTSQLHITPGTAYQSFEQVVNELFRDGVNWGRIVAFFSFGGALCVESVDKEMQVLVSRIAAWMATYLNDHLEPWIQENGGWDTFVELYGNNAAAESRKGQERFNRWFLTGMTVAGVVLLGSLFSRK

Turning to `Cc1ncsc1-c1ccc([C@H](C)NC(=O)[C@@H]2C[C@@H](O)CN2C(=O)[C@@H](NC(=O)CCCC(=O)NCCOc2ccc(C(=O)Nc3nc4ccccc4s3)c3c2CCN(c2ccc(-c4cnn(CC5CCCCC5)c4C)c(C(=O)O)n2)C3)C(C)(C)C)cc1` [I-43], the Dmax on BCL-XL [1] (setting [3]) was in the range of 50 to 75%. At BCL-XL [1] (setting [4]), the 50% degradation concentration (DC50) lay within 0.1 to 0.5 µM. Further, the IC50 with MOLT-4 cells (MOLT-4, 72 h) fell in the range of 0.1 to 1 µM.
The like results for `Cc1ncsc1-c1ccc([C@H](C)NC(=O)[C@@H]2C[C@@H](O)CN2C(=O)[C@@H](NC(=O)CCCCCCC(=O)N2CCN(CC3(C)CCC(c4ccc(Cl)cc4)=C(CN4CCN(c5ccc(C(=O)NS(=O)(=O)c6ccc(NCC78CC9CC(CC(O)(C9)C7)C8)c(S(=O)(=O)C(F)(F)F)c6)cc5)CC4)C3)CC2)C(C)(C)C)cc1` (some centres unmarked) [I-398] were, in that order, below 50%, above 1 µM and above 3 µM.
The like results for `Cc1ncsc1-c1ccc(CNC(=O)[C@@H]2C[C@@H](O)CN2C(=O)[C@@H](NC(=O)C2(F)CC2)C(C)(C)C)c(OCCCC(=O)NCCOc2ccc(C(=O)Nc3nc4ccccc4s3)c3c2CCN(c2ccc(-c4cnn(CC5CCCCC5)c4C)c(C(=O)O)n2)C3)c1` [I-46] were, in that order, 50 to 75%, 0.1 to 0.5 µM and 1 to 3 µM.
Take `Cc1ncsc1-c1ccc(CNC(=O)[C@@H]2C[C@@H](O)CN2C(=O)[C@@H](NC(=O)C2(F)CC2)C(C)(C)C)c(OCCCNC(=O)c2nc(N3CCc4cccc(C(=O)Nc5nc6ccccc6s5)c4C3)ccc2-c2cnn(CC3CCCCC3)c2C)c1` [I-200]: the Dmax at BCL-XL [1] (setting [3]) lay within 50 to 75%. On BCL-XL [1] (setting [4]), the DC50 was 0.1 to 0.5 µM. Further, the concentration for half-maximal inhibition (IC50) in the assay on MOLT-4 cells (MOLT-4, 72 h) is 0.1 to 1 µM.
Taken in the same sequence, the figures for `Cc1ncsc1-c1ccc([C@H](C)NC(=O)[C@@H]2C[C@@H](O)CN2C(=O)C(c2cc(OCC3CCN(CCNC(=O)c4nc(N5CCc6cccc(C(=O)Nc7nc8ccccc8s7)c6C5)ccc4-c4cnn(CC5CCCCC5)c4C)CC3)no2)C(C)C)cc1` (some centres unmarked) [I-175] were below 50%, above 1 µM and 0.1 to 1 µM.
Taken in the same sequence, the figures for `Cc1ncsc1-c1ccc(CNC(=O)[C@@H]2C[C@@H](O)CN2C(=O)[C@@H](NC(=O)C2(F)CC2)C(C)(C)C)c(OCCN2CCC(NC(=O)c3nc(N4CCc5cccc(C(=O)Nc6nc7ccccc7s6)c5C4)ccc3-c3cnn(CC4CCCCC4)c3C)CC2)c1` [I-191] were 50 to 75%, 0.1 to 0.5 µM and 0.1 to 1 µM.
`Cc1ncsc1-c1ccc(CNC(=O)[C@@H]2C[C@@H](O)CN2C(=O)[C@@H](c2cc(N3CC4(CN(C(=O)CCCCC(=O)N(C)CC#Cc5ccc(OCCCc6ccc(N7CCc8cccc(C(=O)Nc9nc%10ccccc%10s9)c8C7)nc6C(=O)O)c(F)c5)C4)C3)no2)C(C)C)cc1` [I-193]: the Dmax on BCL-XL [1] (setting [3]) is above 75%. In addition, the DC50 at BCL-XL [1] (setting [4]) was in the range of 0.01 to 0.1 µM. The IC50 in the assay with MOLT-4 cells (MOLT-4, 72 h) fell in the range of 0.1 to 1 µM.
Taken in the same sequence, the figures for `Cc1ncsc1-c1ccc(CNC(=O)[C@@H]2C[C@@H](O)CN2C(=O)[C@@H](NC(=O)C2(F)CC2)C(C)(C)C)c(OCCCCCC(=O)NCCOc2ccc(C(=O)Nc3nc4ccccc4s3)c3c2CCN(c2ccc(-c4cnn(CC5CCCCC5)c4C)c(C(=O)O)n2)C3)c1` [I-47] were below 50%, above 1 µM and above 3 µM.
The like results for `Cc1cc(N(C)c2ccc(-c3cnn(CC4CCCCC4)c3C)c(C(=O)NS(=O)(=O)CCCCCOc3cc(-c4scnc4C)ccc3CNC(=O)[C@@H]3C[C@@H](O)CN3C(=O)[C@@H](NC(=O)C3(F)CC3)C(C)(C)C)n2)nnc1Nc1nc2ccccc2s1` [I-188] were, in that order, 50 to 75%, above 1 µM and above 3 µM.
For `Cc1ncsc1-c1ccc([C@H](CC(=O)N(C)CC(=O)N2CCN(CC[C@H](CSc3ccccc3)Nc3ccc(S(=O)(=O)NC(=O)c4ccc(N5CCN(CC6=C(c7ccc(Cl)cc7)CCC(C)(C)C6)CC5)cc4)cc3S(=O)(=O)C(F)(F)F)CC2)NC(=O)[C@@H]2C[C@@H](O)CN2C(=O)[C@@H](NC(=O)C2(F)CC2)C(C)(C)C)cc1` [I-136], on BCL-XL [1] (MOLT-4, read-out: Bcl-xL WB in MOLT-4 degradation 16 h: Average Dmax %), the Dmax is below 50%. Also, the DC50 on BCL-XL [1] (setting [4]) is above 1 µM. The IC50 in the assay with MOLT-4 cells (72 h) was above 3 µM.
For the compound `Cc1ncsc1-c1ccc([C@H](C)NC(=O)[C@@H]2C[C@@H](O)CN2C(=O)[C@@H](NC(=O)N2CCC(CN3CCC(CNC(=O)c4nc(N5CCc6cccc(C(=O)Nc7nc8ccccc8s7)c6C5)ccc4-c4cnn(CC5CCCCC5)c4C)CC3)CC2)C(C)(C)C)cc1` [I-144], the maximal degradation (Dmax) on BCL-XL [1] (setting [3]) was 50 to 75%. At BCL-XL [1] (setting [4]), the DC50 lay in the range of 0.5 to 1 µM. For the same compound, the IC50 with MOLT-4 cells (MOLT-4, 72 h) was 0.1 to 1 µM.
The like results for `Cc1ncsc1-c1ccc([C@H](C)NC(=O)[C@@H]2C[C@@H](O)CN2C(=O)[C@H](c2cc(N3CCN(c4ccc(S(=O)(=O)NC(=O)c5nc(N6CCc7cccc(C(=O)Nc8nc9ccccc9s8)c7C6)ccc5-c5cnn(CC6CCCCC6)c5C)cc4)CC3)no2)C(C)C)cc1` [I-213] were, in that order, 50 to 75%, 0.1 to 0.5 µM and 1 to 3 µM.
Taken in the same sequence, the figures for `Cc1cc([C@@H](C(=O)N2C[C@H](O)C[C@H]2C(=O)NCc2ccc(-c3scnc3C)cc2OCC(=O)N2CCN(CC[C@H](CSc3ccccc3)Nc3ccc(S(=O)(=O)NC(=O)c4ccc(N5CCN(CC6=C(c7ccc(Cl)cc7)CCC(C)(C)C6)CC5)cc4)cc3S(=O)(=O)C(F)(F)F)CC2)C(C)C)on1` [I-135] were above 75%, 0.01 to 0.1 µM and 0.1 to 1 µM.
The like results for `Cc1ncsc1-c1ccc([C@H](C)NC(=O)[C@@H]2C[C@@H](O)CN2C(=O)[C@@H](NC(=O)CCCCCC(=O)N2CCN(CC[C@H](CSc3ccccc3)Nc3ccc(S(=O)(=O)NC(=O)c4ccc(N5CCC(C)(C)CC5)cc4)cc3S(=O)(=O)C(F)(F)F)CC2)C(C)(C)C)cc1` [I-392] were, in that order, below 50%, above 1 µM and above 3 µM.
As to `Cc1ncsc1-c1ccc([C@H](C)NC(=O)[C@@H]2C[C@@H](O)CN2C(=O)[C@H](c2cc(OCC3CCN(CCNC(=O)c4nc(N5CCc6cccc(C(=O)Nc7nc8ccccc8s7)c6C5)ccc4-c4cnn(CC5CCCCC5)c4C)CC3)no2)C(C)C)cc1` [I-288], on BCL-XL [2], the Dmax was 50 to 75% and the DC50 lay in the range of 0.5 to 1 µM. For the same compound, the IC50 in the assay on MOLT-4 cells (MOLT-4, 72 h) lay in the range of 0.1 to 1 µM.
Take `Cc1ncsc1-c1ccc([C@H](C)NC(=O)[C@@H]2C[C@@H](O)CN2C(=O)[C@@H](NC(=O)Cc2ccc(S(=O)(=O)NC(=O)c3nc(N4CCc5cccc(C(=O)Nc6nc7ccccc7s6)c5C4)ccc3-c3cnn(CC4CCCCC4)c3C)cc2)C(C)(C)C)cc1` [I-287]: at BCL-XL [2], the Dmax is above 75% and the 50% degradation concentration (DC50) was 0.01 to 0.1 µM. Besides, in the assay on MOLT-4 cells (MOLT-4, 72 h), the half-inhibitory concentration (IC50) lay in the range of 0.1 to 1 µM.
In the case of `Cc1ncsc1-c1ccc([C@H](C)NC(=O)[C@@H]2C[C@@H](O)CN2C(=O)[C@@H](NC(=O)C2CCN(c3ccc(S(=O)(=O)NC(=O)c4nc(N5CCc6cccc(C(=O)Nc7nc8ccccc8s7)c6C5)ccc4-c4cccc(OC(C)C)c4C)cc3)CC2)C(C)(C)C)cc1` [I-305], at BCL-XL [2], the Dmax was below 50% and the DC50 was above 1 µM. Besides, the IC50 in the assay with MOLT-4 cells (MOLT-4, 72 h) fell in the range of 1 to 3 µM.
`Cc1ncsc1-c1ccc(CNC(=O)[C@@H]2C[C@@H](O)CN2C(=O)[C@@H](NC(=O)C2(F)CC2)C(C)(C)C)c(OCCCCCCNCc2nc(N3CCc4cccc(C(=O)Nc5nc6ccccc6s5)c4C3)ccc2-c2cnn(CC3CCCCC3)c2C)c1` [I-222] returned a Dmax at BCL-XL [2] below 50%. Besides, the IC50 in the assay on MOLT-4 cells (MOLT-4, 72 h) was 1 to 3 µM.

Broadly, the Dmax is the greatest extent of degradation seen. By DC50 is commonly meant the concentration giving 50% degradation. Usually IC50 stands for the concentration that inhibits the measured activity by half.

(Values after patent publication US20250197387A1, “BCL-XL DEGRADERS AND USES THEREOF” (Kymera Therapeutics, Inc., priority 2021, published 2025).)
